“And” between values parts separate entries of the source, which are not always exact repeats. Equal values may be shown once.
Tests used:
CAL-85-1 [1] = assay: normalised viability (% of control), CellTiter-Blue; higher = more viable cells (about 100 = DMSO control); conditions: incubation time: 72 h
Protocol: (§1)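 DSRT, CellTiter-Blue viability, 72 h incubation. Signal is normalised to DMSO and benzethonium chloride controls. Value is the normalised response at dose 7.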

MDA-MB-453 [2] = assay: as above; conditions: incubation time: 72 h
Protocol: as §1

DU-4475 [3] = assay: as above; conditions: incubation time: 72 h
Protocol: as §1

CAL-148 [4] = assay: as above; conditions: incubation time: 72 h
Protocol: as §1

CAL-51 [5] = assay: as above; conditions: incubation time: 72 h
Protocol: as §1

HDQ-P1 [6] = assay: as above; conditions: incubation time: 72 h
Protocol: as §1

HCC1143 = assay: normalised response (% of control), CellTiter-Glo; higher = more viable cells (100 = DMSO, 0 = benzethonium chloride kill control); conditions: incubation time: 72 h
Summary of the method: (§2)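 Values are normalised signals, each belonging to one concentration of the series. Breast cancer cells (20 µl suspension) were seeded into 384-well plates with compound at 5 concentrations in 10-fold steps over a compound-specific 10,000-fold range and incubated 72 h. Readouts were CellTox Green fluorescence (485/520 nm), then CellTiter-Glo luminescence after 10 min at room temperature, with each plate set to 0.1 % DMSO as 100 and a positive kill control as 0.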

HCC1599 = assay: as above; conditions: incubation time: 72 h
Summary of the method: as §2

MDA-MB-453 [7] = assay: as above; conditions: incubation time: 72 h
Summary of the method: as §2

BT-549 [8] = assay: as above; conditions: incubation time: 72 h
Summary of the method: as §2

BT-474 [9] = assay: as above; conditions: incubation time: 72 h
Summary of the method: as §2

MFM-223 [10] = assay: as above; conditions: incubation time: 72 h
Summary of the method: as §2

MDA-MB-231 [11] = assay: as above; conditions: incubation time: 72 h
Summary of the method: as §2

Hs578T = assay: as above; conditions: incubation time: 72 h
Summary of the method: as §2

MCF-10A = assay: as above; conditions: incubation time: 72 h
Summary of the method: as §2

MDA-MB-468 = conditions: 72 h
Summary of the method: (§3)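 Breast cancer cell lines (20 µl suspension) were seeded into 384-well plates holding compound at 5 concentrations in 10-fold steps over a compound-specific 10,000-fold range, then incubated 72 h. Cell death was read first by CellTox Green fluorescence (485/520 nm), then viability by CellTiter-Glo luminescence after 10 min at room temperature. Each plate was normalised to 0.1 % DMSO and a positive kill control. EC50 was fitted from the dose-response curves and censored at the top concentration.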

CAL-51 [12] = conditions: 72 h
Summary of the method: as §3

HCC1937 = conditions: 72 h
Summary of the method: as §3

CAL-120 = conditions: 72 h
Summary of the method: as §3

MDA-MB-453 [13] = conditions: 72 h
Summary of the method: as §3

BT-549 [14] = conditions: 72 h
Summary of the method: as §3

BT-474 [15] = conditions: 72 h
Summary of the method: as §3

MFM-223 [16] = conditions: 72 h
Summary of the method: as §3

DU-4475 [17] = conditions: 72 h
Summary of the method: as §3

MDA-MB-231 [18] = conditions: 72 h
Summary of the method: as §3

HDQ-P1 [19] = conditions: 72 h
Summary of the method: as §3

DU-4475 [20] = conditions: 72 h; remark: listed apart in the source
Summary of the method: (§4)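 Each 384-well plate was pre-loaded with compound dissolved in 5 µl medium, received breast cancer cells in 20 µl suspension, and was incubated 72 h. A 2.5 µl addition of CellTiter-Blue for 2 h at 37 °C was followed by a fluorescence read at 560/590 nm. Data were normalised per plate to vehicle and a positive kill control and checked by Z'-factor. EC50 was fitted from the percent-inhibition dose-response curve, censored at the highest concentration, excluding rows with a drug sensitivity score of zero.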

CAL-148 [21] = conditions: 72 h
Summary of the method: as §4

MDA-MB-453 [22] = conditions: 72 h; remark: listed apart in the source
Summary of the method: as §4

CAL-51 [23] = conditions: 72 h; remark: listed apart in the source
Summary of the method: as §4

MDA-MB-436 = conditions: 72 h
Summary of the method: as §3

CAL-85-1 [24] = conditions: 72 h
Summary of the method: as §4

For `COc1cc(Nc2c(C#N)cnc3cc(OCCCN4CCN(C)CC4)c(OC)cc23)c(Cl)cc1Cl` [Bosutinib] (1000 nM), the normalised viability (CAL-85-1 [1]) was 81.9%, the normalised viability (MDA-MB-453 [2]) was 80.3% and the normalised viability (DU-4475 [3]) was 109%. For the same molecule, the normalised viability (CAL-148 [4]) was 72%, the normalised viability (CAL-51 [5]) was 109% and the normalised viability (HDQ-P1 [6]) was 89.2%. The normalised response (HCC1143) was 84.7%, the normalised response (HCC1599) was 86.8% and the normalised response (MDA-MB-453 [7]) was 94.9%. For the same molecule, the normalised response (BT-549 [8]) was 95.2%, the normalised response (BT-474 [9]) was 90.7% and the normalised response (MFM-223 [10]) was 84%. The normalised response (MDA-MB-231 [11]) was 81.6%, the normalised response (Hs578T) was 102% and the normalised response (MCF-10A) was 34.5%.

With `CN(C)C(=N)NC(=N)N` [Metformin] the “EC50, CellTiter-Glo” value (MDA-MB-468) was greater than 100 µM and the “EC50, CellTiter-Glo” value (CAL-51 [12]) was 0.36 µM.

For `O=C(CCCCCCC(=O)Nc1ccccc1)NO` [Vorinostat] (1000 nM), the normalised viability (CAL-85-1 [1]) was 84% and 86.3%, the normalised viability (MDA-MB-453 [2]) was 51.6% and 54.1% and the normalised viability (DU-4475 [3]) was 103% and 97.4%. The normalised viability (CAL-148 [4]) was 83.7% and 89.3%, the normalised viability (CAL-51 [5]) was 107% and 99.4% and the normalised viability (HDQ-P1 [6]) was 80.8% and 62.8%. It also gave a normalised response (HCC1143) of 90.2%, a normalised response (HCC1599) of 98.9% and a normalised response (MDA-MB-453 [7]) of 61.2%. For the same molecule, the normalised response (BT-549 [8]) was 100%, the normalised response (BT-474 [9]) was 89.4% and the normalised response (MFM-223 [10]) was 91.6%. It also gave a normalised response (MDA-MB-231 [11]) of 85.4%, a normalised response (Hs578T) of 95.8% and a normalised response (MCF-10A) of 104%.

In the case of `CC1(C)CCC(c2ccc(Cl)cc2)=C(CN2CCN(c3ccc(C(=O)NS(=O)(=O)c4ccc(N[C@H](CCN5CCOCC5)CSc5ccccc5)c(S(=O)(=O)C(F)(F)F)c4)cc3)CC2)C1` [Navitoclax], the “EC50, CellTiter-Glo” value (HCC1937) is reported as greater than 10 µM, the “EC50, CellTiter-Glo” value (CAL-120) is reported as 3.9 µM and the “EC50, CellTiter-Glo” value (MDA-MB-468) is reported as 0.0864 µM. The “EC50, CellTiter-Glo” value (MDA-MB-453 [13]) was 6.68 µM, the “EC50, CellTiter-Glo” value (BT-549 [14]) was greater than 10 µM and the “EC50, CellTiter-Glo” value (BT-474 [15]) was 1.68 µM. The “EC50, CellTiter-Glo” value (MFM-223 [16]) was greater than 10 µM, the “EC50, CellTiter-Glo” value (DU-4475 [17]) was 2.99 µM and the “EC50, CellTiter-Glo” value (MDA-MB-231 [18]) was 0.774 µM. For the same molecule, the “EC50, CellTiter-Glo” value (CAL-51 [12]) was 1.26 µM, the “EC50, CellTiter-Glo” value (HDQ-P1 [19]) was 0.392 µM and the “EC50, CellTiter-Blue viability” value (DU-4475 [20]) was 0.286 µM. The “EC50, CellTiter-Blue viability” value (CAL-148 [21]) was 0.129 µM.

`CNC(=O)c1ccccc1Sc1ccc2c(/C=C/c3ccccn3)n[nH]c2c1` [Axitinib] (1000 nM) showed a normalised viability (CAL-85-1 [1]) of 76.9%, a normalised viability (MDA-MB-453 [2]) of 60.4% and a normalised viability (DU-4475 [3]) of 109%. It also gave a normalised viability (CAL-148 [4]) of 97.5%, a normalised viability (CAL-51 [5]) of 88.7% and a normalised viability (HDQ-P1 [6]) of 76.8%. The normalised response (HCC1143) was 94.6%, the normalised response (HCC1599) was 82% and the normalised response (MDA-MB-453 [7]) was 87.9%. The normalised response (BT-549 [8]) was 103%, the normalised response (BT-474 [9]) was 102% and the normalised response (MFM-223 [10]) was 59.8%. For the same molecule, the normalised response (MDA-MB-231 [11]) was 111%, the normalised response (Hs578T) was 93.8% and the normalised response (MCF-10A) was 95%.

In the case of `CC(C)(C)NC(=O)[C@H]1CC[C@H]2[C@@H]3CC[C@H]4NC(=O)C=C[C@]4(C)[C@H]3CC[C@]12C` [Finasteride], the “EC50, CellTiter-Blue viability” value (MDA-MB-453 [22]) is reported as 7.43 µM, the “EC50, CellTiter-Blue viability” value (DU-4475 [20]) is reported as 5.42 µM and the “EC50, CellTiter-Blue viability” value (CAL-148 [21]) is reported as 8.19 µM. For the same molecule, the “EC50, CellTiter-Blue viability” value (CAL-51 [23]) was 8.16 µM.

With `Cn1cc(C2=C(c3cn(C4CCN(Cc5ccccn5)CC4)c4ccccc34)C(=O)NC2=O)c2ccccc21` [Enzastaurin] the “EC50, CellTiter-Blue viability” value (MDA-MB-453 [22]) was 0.408 µM and the “EC50, CellTiter-Blue viability” value (CAL-148 [21]) was 0.024 µM.

With `Cc1cn(-c2cc(NC(=O)c3ccc(C)c(Nc4nccc(-c5cccnc5)n4)c3)cc(C(F)(F)F)c2)cn1` [Nilotinib] the “EC50, CellTiter-Glo” value (BT-549 [14]) was greater than 10 µM and the “EC50, CellTiter-Glo” value (CAL-51 [12]) was 0.0326 µM.

With `CCNC(=O)c1noc(-c2cc(C(C)C)c(O)cc2O)c1-c1ccc(CN2CCOCC2)cc1` [NVP-AUY922] (100 nM) the normalised viability (CAL-85-1 [1]) was 28.6%, the normalised viability (MDA-MB-453 [2]) was 8.47% and the normalised viability (DU-4475 [3]) was 0.71%. It also gave a normalised viability (CAL-148 [4]) of 15.9%, a normalised viability (CAL-51 [5]) of 10.1% and a normalised viability (HDQ-P1 [6]) of 31.8%. The normalised response (HCC1143) was 36.8%, the normalised response (HCC1599) was 71% and the normalised response (MDA-MB-453 [7]) was 32.3%. For the same molecule, the normalised response (BT-549 [8]) was 41.1%, the normalised response (BT-474 [9]) was 25% and the normalised response (MFM-223 [10]) was 43.4%. It also gave a normalised response (MDA-MB-231 [11]) of 24.6%, a normalised response (Hs578T) of 39.1% and a normalised response (MCF-10A) of 15.2%.

With `O=C(O)CNC(=O)c1c(O)c2ccccc2n(Cc2ccccc2)c1=O` [IOX-2] the “EC50, CellTiter-Glo” value (BT-549 [14]) was greater than 50 µM and the “EC50, CellTiter-Glo” value (CAL-51 [12]) was 1.02 µM.

`CC(O)(CS(=O)(=O)c1ccc(F)cc1)C(=O)Nc1ccc(C#N)c(C(F)(F)F)c1` (configuration not stated) [Bicalutamide] was tested, and the “EC50, CellTiter-Glo” value (MDA-MB-453 [13]) was greater than 10 µM.

With `C/C(=C\c1csc(C)n1)[C@@H]1C[C@@H]2O[C@]2(C)CCC[C@H](C)[C@H](O)[C@@H](C)C(=O)C(C)(C)[C@@H](O)CC(=O)N1` [Ixabepilone] (100 nM) the normalised viability (CAL-85-1 [1]) was 80.5%, the normalised viability (MDA-MB-453 [2]) was 78.5% and the normalised viability (DU-4475 [3]) was 93.7%. It also gave a normalised viability (CAL-148 [4]) of 86.5%, a normalised viability (CAL-51 [5]) of 108% and a normalised viability (HDQ-P1 [6]) of 78.1%. It also gave a normalised response (HCC1143) of 97.5%, a normalised response (HCC1599) of 103% and a normalised response (MDA-MB-453 [7]) of 109%. The normalised response (BT-549 [8]) was 23.6%, the normalised response (BT-474 [9]) was 103% and the normalised response (MFM-223 [10]) was 105%. It also gave a normalised response (MDA-MB-231 [11]) of 96.9%, a normalised response (Hs578T) of 104% and a normalised response (MCF-10A) of 110%.

In the case of `CC(C)n1cnc2c(NCCc3ccc(O)cc3)nc(-c3csc4ccccc34)nc21` [StemRegenin 1], the “EC50, CellTiter-Glo” value (HCC1937) is reported as greater than 10 µM, the “EC50, CellTiter-Glo” value (MDA-MB-468) is reported as 9.61 µM and the “EC50, CellTiter-Glo” value (MDA-MB-453 [13]) is reported as greater than 10 µM. For the same molecule, the “EC50, CellTiter-Glo” value (BT-549 [14]) was 0.565 µM, the “EC50, CellTiter-Glo” value (MFM-223 [16]) was 2.02 µM and the “EC50, CellTiter-Glo” value (MDA-MB-436) was 7.63 µM. The “EC50, CellTiter-Glo” value (HDQ-P1 [19]) was 4.79 µM.

For `COc1c2occc2cc2ccc(=O)oc12` [Methoxsalen], the “EC50, CellTiter-Blue viability” value (CAL-85-1 [24]) was 9.05 µM, the “EC50, CellTiter-Blue viability” value (MDA-MB-453 [22]) was 7.9 µM and the “EC50, CellTiter-Blue viability” value (DU-4475 [20]) was 6.86 µM. The “EC50, CellTiter-Blue viability” value (CAL-148 [21]) was 6.36 µM.

— the supplement of paper PMC4862054
